In US20100061928A1, “LABELLED ANALOGUES OF HALOBENZAMIDES AS RADIOPHARMACEUTICALS” (Institut National De La Sante et De La Recherche Medicale …, priority 2006, published 2010):
Counter-ions that a name gives are not always drawn.

Key:
[1] = system: grafted B16 F0 murine melanoma tumour; assay: Biodistribution of the ^125I-labelled molecules in the melanoma-bearing mouse (autoradiography of whole-body sections); details: for Biodistribution, Mean, B 16 / Biodistribution, radioactivity concentration in B 16, Mean: B 16 tumour
[2] = Elimination of the molecules: cumulative urinary and faecal excretion 0-72 hours; format: in vivo, mouse; details: for Faecal elimination 0-72 hours (Faeces) / Urinary and faecal elimination 0-72 hours (Total) / Urinary elimination 0-72 hours (Urine): cumulative excretion 0-72 hours; for Faecal elimination 0-72 hours (Faeces) / Urinary elimination 0-72 hours (Urine): mice in metabolic cages; for Urinary and faecal elimination 0-72 hours (Total): urine + faeces
tumour = assay: Dosimetry with regard to the tumour (MIRD programme, extrapolated to ^131I); details: for Effective period: extrapolated to 131I labelling; for Biological period: from biodistribution data
[3] = 1 H after i.v., 125I-labelled, dose = 1.09 MBq
[4] = 3 H after i.v., 125I-labelled, dose = 1.09 MBq
[5] = 24 H after i.v., 125I-labelled, dose = 1.09 MBq
[6] = 72 H after i.v., 125I-labelled, dose = 1.09 MBq

With CCN(CC)CCNC(=O)c1cccc2cc3cc(I)ccc3nc12 [compound 111, N-(2-diethylaminoethyl)-7-iodoacridine-4-carboxamide dihydrochloride] the “Biodistribution, Mean, B 16” value ([1]; 1 H) was 4.78, the “Biodistribution, Mean, B 16” value ([1]; 3 H) was 3.98 and the “Biodistribution, Mean, B 16” value ([1]; 6 H) was 4.57. For the same compound, the “Biodistribution, Mean, B 16” value ([1]; 24 H) was 2.77, the “Biodistribution, Mean, B 16” value ([1]; 72 H) was 1.67 and the “Biodistribution, Mean, GB” value ([1]; 1 H) was 43.71. The “Biodistribution, Mean, GB” value ([1]; 6 H) was 12.79, the “Biodistribution, Mean, Ic” value ([1]; 1 H) was 23.92 and the “Biodistribution, Mean, Ic” value ([1]; 3 H) was 30.20. The “Biodistribution, Mean, Ic” value ([1]; 6 H) was 28.54, the “Biodistribution, Mean, Ic” value ([1]; 24 H) was 1.83 and the “Biodistribution, Mean, Ic” value ([1]; 72 H) was 0.75. The “Biodistribution, Mean, Sc” value ([1]; 1 H) was 10.16, the “Biodistribution, Mean, Sc” value ([1]; 3 H) was 9.56 and the “Biodistribution, Mean, Sc” value ([1]; 6 H) was 6.06. For the same compound, the “Biodistribution, Mean, Sc” value ([1]; 24 H) was 0.73, the “Biodistribution, Mean, blood” value ([1]; 1 H) was 0.75 and the “Biodistribution, Mean, blood” value ([1]; 3 H) was 0.54. The “Biodistribution, Mean, blood” value ([1]; 6 H) was 0.42, the “Biodistribution, Mean, brain” value ([1]; 1 H) was 0.28 and the “Biodistribution, Mean, brain” value ([1]; 3 H) was 0.27. For the same compound, the “Biodistribution, Mean, brain” value ([1]; 6 H) was 0.11, the “Biodistribution, Mean, kidney” value ([1]; 1 H) was 3.07 and the “Biodistribution, Mean, kidney” value ([1]; 3 H) was 1.27. The “Biodistribution, Mean, kidney” value ([1]; 6 H) was 0.77, the “Biodistribution, Mean, liver” value ([1]; 1 H) was 5.38 and the “Biodistribution, Mean, liver” value ([1]; 3 H) was 3.62. The “Biodistribution, Mean, liver” value ([1]; 6 H) was 2.16, the “Biodistribution, Mean, liver” value ([1]; 24 H) was 0.48 and the “Biodistribution, Mean, liver” value ([1]; 72 H) was 0.42. For the same compound, the “Biodistribution, Mean, lungs” value ([1]; 1 H) was 1.70, the “Biodistribution, Mean, lungs” value ([1]; 3 H) was 0.88 and the “Biodistribution, Mean, lungs” value ([1]; 6 H) was 0.59. For the same compound, the “Biodistribution, Mean, muscle” value ([1]; muscle, 1 H) was 0.30, the “Biodistribution, Mean, pancreas” value ([1]; 1 H) was 1.38 and the “Biodistribution, Mean, pancreas” value ([1]; 3 H) was 0.70. The “Biodistribution, Mean, spleen” value ([1]; 1 H) was 3.11, the “Biodistribution, Mean, spleen” value ([1]; 3 H) was 1.29 and the “Biodistribution, Mean, spleen” value ([1]; 6 H) was 0.87. For the same compound, the “Biodistribution, Mean, thyroid” value ([1]; 1 H) was 21.00, the “Biodistribution, Mean, thyroid” value ([1]; 24 H) was 40.73 and the “Biodistribution, Mean, thyroid” value ([1]; 72 H) was 38.07. The “Biodistribution, Mean, uvea” value ([1]; 1 H) was 3.83, the “Biodistribution, Mean, uvea” value ([1]; 3 H) was 4.69 and the “Biodistribution, Mean, uvea” value ([1]; 6 H) was 3.51. For the same compound, the “Biodistribution, Mean, uvea” value ([1]; 24 H) was 3.45, the “Biodistribution, Mean, uvea” value ([1]; 72 H) was 1.96 and the “Faecal elimination 0-72 hours (Faeces)” value [2] was 23.2%. The “Urinary and faecal elimination 0-72 hours (Total)” value [2] was 31.7% and the “Urinary elimination 0-72 hours (Urine)” value [2] was 8.5%.
In the case of CCN(CC)CCNC(=O)c1cc2c(I)cccc2cn1 [compound 39, N-(2-diethylaminoethyl)-5-iodoisoquinoline-3-carboxamide dihydrochloride], the “Biodistribution, Mean, B 16” value ([1]; 1 H) is reported as 7.27, the “Biodistribution, Mean, B 16” value ([1]; 3 H) is reported as 7.12 and the “Biodistribution, Mean, B 16” value ([1]; 6 H) is reported as 7.92. For the same compound, the “Biodistribution, Mean, B 16” value ([1]; 24 H) was 7.05, the “Biodistribution, Mean, B 16” value ([1]; 72 H) was 3.13 and the “Biodistribution, Mean, Ic” value ([1]; 1 H) was 42.97. For the same compound, the “Biodistribution, Mean, Ic” value ([1]; 3 H) was 68.64, the “Biodistribution, Mean, Ic” value ([1]; 6 H) was 29.16 and the “Biodistribution, Mean, Ic” value ([1]; 24 H) was 1.70. For the same compound, the “Biodistribution, Mean, Sc” value ([1]; 1 H) was 23.01, the “Biodistribution, Mean, Sc” value ([1]; 3 H) was 19.05 and the “Biodistribution, Mean, Sc” value ([1]; 6 H) was 28.44. For the same compound, the “Biodistribution, Mean, Sc” value ([1]; 24 H) was 0.75, the “Biodistribution, Mean, blood” value ([1]; 1 H) was 2.15 and the “Biodistribution, Mean, blood” value ([1]; 3 H) was 2.65. For the same compound, the “Biodistribution, Mean, blood” value ([1]; 6 H) was 2.17, the “Biodistribution, Mean, brain” value ([1]; 1 H) was 0.30 and the “Biodistribution, Mean, brain” value ([1]; 3 H) was 0.09. For the same compound, the “Biodistribution, Mean, kidney” value ([1]; 1 H) was 4.62, the “Biodistribution, Mean, kidney” value ([1]; 3 H) was 2.66 and the “Biodistribution, Mean, kidney” value ([1]; 6 H) was 2.11. For the same compound, the “Biodistribution, Mean, liver” value ([1]; 1 H) was 3.86, the “Biodistribution, Mean, liver” value ([1]; 3 H) was 2.02 and the “Biodistribution, Mean, liver” value ([1]; 6 H) was 1.54. The “Biodistribution, Mean, liver” value ([1]; 24 H) was 0.43, the “Biodistribution, Mean, lungs” value ([1]; 1 H) was 3.68 and the “Biodistribution, Mean, lungs” value ([1]; 3 H) was 2.76. For the same compound, the “Biodistribution, Mean, lungs” value ([1]; 6 H) was 2.05, the “Biodistribution, Mean, muscle” value ([1]; muscle, 1 H) was 0.74 and the “Biodistribution, Mean, muscle” value ([1]; muscle, 3 H) was 0.43. For the same compound, the “Biodistribution, Mean, pancreas” value ([1]; 1 H) was 2.39, the “Biodistribution, Mean, spleen” value ([1]; 1 H) was 2.83 and the “Biodistribution, Mean, spleen” value ([1]; 72 H) was 1.62. The “Biodistribution, Mean, thyroid” value ([1]; 1 H) was 16.88, the “Biodistribution, Mean, thyroid” value ([1]; 3 H) was 35.71 and the “Biodistribution, Mean, thyroid” value ([1]; 6 H) was 48.93. The “Biodistribution, Mean, thyroid” value ([1]; 24 H) was 88.65, the “Biodistribution, Mean, thyroid” value ([1]; 72 H) was 132.79 and the “Biodistribution, Mean, uvea” value ([1]; 1 H) was 18.08. The “Biodistribution, Mean, uvea” value ([1]; 3 H) was 13.87, the “Biodistribution, Mean, uvea” value ([1]; 6 H) was 18.02 and the “Biodistribution, Mean, uvea” value ([1]; 24 H) was 14.55. The “Biodistribution, Mean, uvea” value ([1]; 72 H) was 9.73, the Effective period (tumour) was 43.6 h and the Biological period (tumour) was 56.3 hours. For the same compound, the “Faecal elimination 0-72 hours (Faeces)” value [2] was 21.2%, the “Urinary and faecal elimination 0-72 hours (Total)” value [2] was 71.1% and the “Urinary elimination 0-72 hours (Urine)” value [2] was 49.9%.
With CCCN(CCC)CCCCNC(=O)c1cnc2cc(I)ccc2n1 [compound 144, N-(4-dipropylaminobutyl)-6-iodoquinoxaline-2-carboxamide dihydrochloride] the “Biodistribution, radioactivity concentration in B 16, Mean” value (shortened to “Biodistribution … in B 16, Mean”) [1, 3] was 14.69 % ID/g, the “Biodistribution … in B 16, Mean” value [1, 4] was 44.92 % ID/g and the “Biodistribution … in B 16, Mean” value [1, 5] was 37.46 % ID/g. The “Biodistribution … in B 16, Mean” value [1, 6] was 24.02 % ID/g, the “Biodistribution, radioactivity concentration in Ic, Mean” value [1, 3] was 27.28 % ID/g and the “Biodistribution, radioactivity concentration in Ic, Mean” value [1, 4] was 29.12 % ID/g. For the same compound, the “Biodistribution, radioactivity concentration in Sc, Mean” value [1, 3] was 24.11 % ID/g, the “Biodistribution, radioactivity concentration in Sc, Mean” value [1, 4] was 34.86 % ID/g and the “tumour concentration, times higher than with BZA” value ([1]; at 72 hours (FIG. 1B)) was 31 times. For the same compound, the “Biodistribution, radioactivity concentration in blood, Mean” value [1, 3] was 1.85 % ID/g, the “Biodistribution, radioactivity concentration in blood, Mean” value [1, 4] was 1.61 % ID/g and the “Biodistribution, radioactivity concentration in brain, Mean” value [1, 3] was 0.75 % ID/g. For the same compound, the “Biodistribution, radioactivity concentration in brain, Mean” value [1, 4] was 0.46 % ID/g, the “tumour concentration, % of the injected dose per gram of tumour” value ([1]; from the first hour) was 14.7 % ID/g and the “Biodistribution, radioactivity concentration in kidney, Mean” value [1, 3] was 24.42 % ID/g. For the same compound, the “Biodistribution, radioactivity concentration in kidney, Mean” value [1, 4] was 17.73 % ID/g, the “Biodistribution, radioactivity concentration in liver, Mean” value [1, 3] was 12.84 % ID/g and the “Biodistribution, radioactivity concentration in liver, Mean” value [1, 4] was 7.84 % ID/g. For the same compound, the “Biodistribution, radioactivity concentration in lungs, Mean” value [1, 3] was 5.81 % ID/g, the “Biodistribution, radioactivity concentration in lungs, Mean” value [1, 4] was 4.91 % ID/g and the “Biodistribution, radioactivity concentration in muscle, Mean” value ([1]; muscle, 3 H after i.v., 125I-labelled, dose = 1.09 MBq) was 0.79 % ID/g. The “Biodistribution, radioactivity concentration in pancreas, Mean” value [1, 3] was 23.88 % ID/g, the “Biodistribution, radioactivity concentration in pancreas, Mean” value [1, 4] was 13.06 % ID/g and the “Biodistribution, radioactivity concentration in spleen, Mean” value [1, 3] was 18.70 % ID/g. The “Biodistribution, radioactivity concentration in spleen, Mean” value [1, 4] was 6.08 % ID/g, the “Biodistribution, radioactivity concentration in thyroid, Mean” value [1, 4] was 60.78 % ID/g and the “Biodistribution, radioactivity concentration in thyroid, Mean” value [1, 5] was 44.74 % ID/g. For the same compound, the “Biodistribution, radioactivity concentration in uvea, Mean” value (shortened to “Biodistribution … in uvea, Mean”) [1, 3] was 28.75 % ID/g, the “Biodistribution … in uvea, Mean” value [1, 4] was 41.75 % ID/g and the “Biodistribution … in uvea, Mean” value [1, 5] was 32.62 % ID/g. The “Biodistribution … in uvea, Mean” value [1, 6] was 23.28 % ID/g, the “Faecal elimination 0-72 hours (Faeces)” value [2] was 34.8% and the “Urinary and faecal elimination 0-72 hours (Total)” value [2] was 80.5%. The “Urinary elimination 0-72 hours (Urine)” value [2] was 45.7%.
In the case of CCN(CC)CCNC(=O)c1ccc(I)cc1 [BZA, N-(2-diethylaminoethyl)-4-iodobenzamide, reference compound], the Effective period (tumour) is reported as 17.8 h, the Biological period (tumour) is reported as 19.6 hours and the “Faecal elimination 0-72 hours (Faeces)” value [2] is reported as 4.8%. The “Urinary and faecal elimination 0-72 hours (Total)” value [2] was 87.9%, the “Urinary elimination 0-72 hours (Urine)” value [2] was 83.1% and the “elimination route (in words)” value ([2]; urinary versus faecal, 0-72 hours) was “predominantly in the urine”.
